Values of other authors, collected in patent US7718389B2, “Stabilizing composition and stabilizing method of coelenterazine solution for high-throughput measurement of luciferase activity” (National Institute of Advanced Industrial Science and …, priority 2006, dated 2010).

Details: background statement

## Oc1ccc(Cc2nc3c(Cc4ccccc4)nc(-c4ccc(O)cc4)cn3c2O)cc1 [coelenterazine]
  pKa value of proton of an imidazopyrazinone ring: around 7.4
